Data set [1] in a line: Pharmacokinetic analysis in plasma and eye fluids after oral administration. The data set is classed as in vivo, mice. As to conditions: for Kp: single oral 400 mg/kg; for AUC(0-t): read-out: AUC0-6h. How it is done: Pharmacokinetic analysis of test compounds after oral administration aims to determine its bioavailability and clearance in the plasma and in the eye fluids (aqueous and vitreous humor). The test compounds are quantified in the plasma and in the aqueous and vitreous humor after acute and repeated treatment (with different routes of administration). The time-dependent concentration is then determined and pharmacokinetic parameters (Cmax, AUC0-t, tmax) are calculated.
Experimental procedure: Male wild-type C57BL/6J mice (7 weeks old, about 25 g body weight) are individually housed in Makrolon type II cages with standard bedding and free access to food and water under a regular 12-hours light-dark cycle (8 a.m. to 8 p.m.). Mice receive single or daily repeated oral doses of the test compounds (ranging from 20 to 2000 mg/kg of body weight) or the vehicle administered though the diet or by gavage at the end of the light phase. The treatment can be followed by a washout period. Samples for pharmacokinetic analysis are taken at different time intervals following compound administration. Mice are anesthetized by 5% isofluran inhalation in an induction chamber and sacrificed by cervical dislocation. Blood is collected from the head cut for plasma extraction. Eye balls are dissected out to collect aqueous and vitreous humor. Samples are snap frozen in liquid nitrogen and stored (-80°C) until analyzed by LC-MS/MS and accordingly to standardized procedures. All mouse procedures are performed in accordance with the Swiss regulation and under a license approved by the "Kantonales Veterinäramt Basel-Land".
The pharmacokinetic profile of idebenone (compound IA) was assessed, following a single oral gavage dose to male mice. […] Furthermore, the ratio (vitreous humor /plasma and aqueous humor/plasma) appeared to be independent of the time post dose, consistent with a lack of accumulation of idebenone in the eye. The overall extent of exposure to idebenone in the vitreous humor, as measured by AUC0-6h, represented about 2 % of that observed in plasma (vitreous/plasma ratio; Table 8). Similarly, the extent of exposure to idebenone in the aqueous humor represented about 3 % of that observed in plasma (aqueous/plasma ratio; Table 8).

Data set [2] in a line: Literature plasma and brain levels after oral dosing (Torii et al., Nagai et al.). The format is in vivo. As to conditions: rats, oral 10 mg/kg. How it is done: Beyond the high first-pass effect, a further drawback of compounds of formula (I), and again exemplified with compound IA as a representative for this compound class, is the fact, that these compounds are reaching the brain only in very limited amounts when given orally. For example, it is known from the literature (Torii H, Yoshida K, Kobayashi T, Tsukamoto T, Tanayama S. J Pharmacobiodyn. 1985 Jun;8(6):457-67) that an oral dose of 10 mg/kg of idebenone (compound IA) in rats leads to plasma levels of approximately 1000 ng/ml of total idebenone as measured by radioactivity after oral dosing of radioactive labeled compound IA. The total concentration means idebenone including its metabolites. […] The corresponding levels in the brain are 10 ng/ml of total idebenone (which again means including the metabolites), resulting in only 0.03 ng/ml for parent idebenone itself. As a result, the ratio of brain vs plasma levels is about 1%. This is in line with the findings of Nagai et al (Nagai Y, Yoshida K, Narumi S, Tanayama S, Nagaoka A. Brain distribution of idebenone and its effect on local cerebral glucose utilization in rats. Arch Gerontol Geriatr. 1989;8(3):257-72), where higher oral doses of idebenone (100 mg/kg) are leading to similar low brain- to-plasma ratio of 1-2% in rats.

Setting [3] is: C57BL/6J, mouse, Aqueous Humor, single oral administration at 400 mg/kg, male mice.
The mark [4] stands for this setting: C57BL/6J, mouse, Plasma, single oral administration at 400 mg/kg, male mice.
Setting [5] is: C57BL/6J, mouse, Vitreous Humor, single oral administration at 400 mg/kg, male mice.
[6] abbreviates: correction factor calculated from Torii et al.

Read-outs that look alike come from different tables or passages of the source.

For orientation: Cmax means the highest concentration seen after dosing. By Tmax is commonly meant the time from dosing to the highest level. The term AUC(0-inf) denotes the area under the concentration-time curve extrapolated to infinity. Low readings indicate low exposure, high ones high exposure. One may read the half-life as the time in which the quantity being followed falls by half. Read a high half-life as slow decline. As to `COC1=C(OC)C(=O)C(CCCCCCCCCCO)=C(C)C1=O` [Compound IA, Idebenone], in data set [1] (C57BL/6J, mouse, aqueous humor / plasma, male mice, read-out: extent of exposure in the aqueous humor relative to plasma), the Kp was about 0.03. Moreover, the Kp in data set [1] (C57BL/6J, mouse, vitreous humor / plasma, male mice, read-out: extent of exposure in the vitreous humor (AUC0-6h) relative to plasma) is about 0.02. Besides, in data set [1] (setting [3]), the highest concentration (Cmax) was found to be 86.2 ng/mL, the time to peak (Tmax) was 15 min and the AUC(0-t) came out at 62.6 ng·h/mL. For the same molecule, in data set [1] (setting [4]), the total exposure AUC(0-inf) is 1960 ng·h/mL, the Cmax was found to be 1070 ng/mL, the Tmax amounted to 15 min and the half-life was 102 min. The AUC(0-t) in data set [1] (setting [4]) worked out at 1860 ng·h/mL. Moreover, in data set [1] (setting [5]), the peak concentration (Cmax) came to 37.9 ng/mL, the Tmax was 15 min and the AUC(0-t) worked out at 38.1 ng·h/mL. In addition, the λz in data set [1] (Plasma, single oral administration at 400 mg/kg, male mice) came out at 0.409 h⁻¹. The “time of maximum in vitreous and aqueous humors (up-take into the eye)” value in data set [1] (oral dietary or gavage administration, mouse, post-dose) was under 15 min. Further, in data set [1] (single oral dose of 400 mg/kg, first sampling time post-dose), the “time of maximum concentration in plasma, vitreous and aqueous humors” value came to 15 min. In addition, the Kp in data set [2] (rat, brain / plasma, read-out: ratio of brain vs plasma levels) was about 0.01. In data set [2] (setting [6]), the “idebenone plasma levels (unmetabolized parent)” value was 3 ng/mL and the “levels in the brain of parent idebenone” value was 0.03 ng/mL.
